Source: US20260297085A1, “1 H-PYRROLO[2,3-B]PYRIDIN-4-YL]-2-OXOPYRROLIDINE-3-CARBONITRILE DERIVATIVES AS TYROSINE KINASE 2 (TYK2) INHIBITORS FOR THE TREATMENT OF INFLAMMATORY DISEASES” (BIOGEN MA INC., priority 2023, published 2026)
Structures can show the parent of a compound that is named as a salt. One block for each compound: values may come before it.

Experiments:
[1] = target: T1, human JAK2 kinase domain (JH1) (Homo sapiens, UniProt O60674); experiment: JH1 biochemical assay for JAK2 (ADP-Glo kinase assay, recombinant JH1 catalytic domain, JAK3-974 peptide, 15 μM ATP)
T1 construct: recombinantly generated catalytic kinase (also known as JH1) domain of human JAK1, JAK2, JAK3 and TYK2
T1 sequence (O60674 849-1124 limits assumed): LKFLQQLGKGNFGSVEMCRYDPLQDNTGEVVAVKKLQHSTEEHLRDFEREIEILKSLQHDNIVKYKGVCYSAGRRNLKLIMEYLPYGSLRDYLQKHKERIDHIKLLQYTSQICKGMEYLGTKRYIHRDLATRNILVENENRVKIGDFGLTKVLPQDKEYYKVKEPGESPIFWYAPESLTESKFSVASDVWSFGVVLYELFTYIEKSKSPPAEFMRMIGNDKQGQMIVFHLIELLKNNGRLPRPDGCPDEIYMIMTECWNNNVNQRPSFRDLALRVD
How it was run: (§1)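 Reactions contain 50 μM peptide and run 100 minutes, with enzyme at 4, 0.2, 0.3 and 2 nM for JAK1, JAK2, JAK3 and TYK2. Generated ADP is read by luminescence; IC50 derives from normalized dose-response curves.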

[2] = target: T2, human JAK3 kinase domain (JH1) (Homo sapiens, UniProt P52333); experiment: JH1 biochemical assay for JAK3 (ADP-Glo kinase assay, recombinant JH1 catalytic domain, JAK3-974 peptide, 4 μM ATP)
T2 construct: recombinantly generated catalytic kinase (also known as JH1) domain of human JAK1, JAK2, JAK3 and TYK2
T2 sequence (P52333 822-1111 limits assumed): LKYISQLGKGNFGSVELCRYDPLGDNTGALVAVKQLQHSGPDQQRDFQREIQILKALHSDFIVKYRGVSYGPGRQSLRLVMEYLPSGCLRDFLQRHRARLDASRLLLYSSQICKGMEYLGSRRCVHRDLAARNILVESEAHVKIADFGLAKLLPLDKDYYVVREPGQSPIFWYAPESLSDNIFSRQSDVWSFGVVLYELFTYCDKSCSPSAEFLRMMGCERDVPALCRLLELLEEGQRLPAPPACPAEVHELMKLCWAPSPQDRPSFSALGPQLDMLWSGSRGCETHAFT
How it was run: as §1

[3] = target: T3, human JAK1 kinase domain (JH1) (Homo sapiens, UniProt P23458); experiment: JH1 biochemical assay for JAK1 (ADP-Glo kinase assay, recombinant JH1 catalytic domain, JAK3-342 peptide, 35 μM ATP)
T3 construct: recombinantly generated catalytic kinase (also known as JH1) domain of human JAK1, JAK2, JAK3 and TYK2
T3 sequence (P23458 875-1153 limits assumed): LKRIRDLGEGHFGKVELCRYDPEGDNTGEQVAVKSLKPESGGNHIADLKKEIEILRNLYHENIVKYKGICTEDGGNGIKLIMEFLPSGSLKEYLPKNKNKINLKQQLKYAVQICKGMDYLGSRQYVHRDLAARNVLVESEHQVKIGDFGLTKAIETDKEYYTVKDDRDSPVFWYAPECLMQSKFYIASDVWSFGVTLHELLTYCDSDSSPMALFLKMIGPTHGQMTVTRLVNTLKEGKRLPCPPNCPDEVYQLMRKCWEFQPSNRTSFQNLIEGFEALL
How it was run: as §1

[4] = target: T4, human TYK2 kinase domain (JH1) (Homo sapiens, UniProt P29597); experiment: JH1 biochemical assay for TYK2 (ADP-Glo kinase assay, recombinant JH1 catalytic domain, JAK3-974 peptide, 10 μM ATP)
T4 construct: recombinantly generated catalytic kinase (also known as JH1) domain of human JAK1, JAK2, JAK3 and TYK2
T4 sequence (P29597 897-1176 limits assumed): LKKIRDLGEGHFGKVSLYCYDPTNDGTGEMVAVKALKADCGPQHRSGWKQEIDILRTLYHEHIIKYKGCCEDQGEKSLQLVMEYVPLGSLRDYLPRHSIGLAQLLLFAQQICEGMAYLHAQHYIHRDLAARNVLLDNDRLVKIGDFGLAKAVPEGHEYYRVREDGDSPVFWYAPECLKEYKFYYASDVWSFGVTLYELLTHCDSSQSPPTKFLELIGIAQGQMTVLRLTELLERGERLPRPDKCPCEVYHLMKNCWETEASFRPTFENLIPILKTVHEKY
How it was run: as §1

[5] = target: Tyk2 kinase activity on STAT4 in NK92 cells (Homo sapiens, UniProt P29597); experiment: pSTAT4 cell assay (MSD; NK92 cells, 30 ng/mL IL2 stimulation); assay type: cell-based; conditions: 30 ng/mL IL2, 15 minutes
Sequence of Tyk2 kinase activity on STAT4 in NK92 cells (P29597 whole entry): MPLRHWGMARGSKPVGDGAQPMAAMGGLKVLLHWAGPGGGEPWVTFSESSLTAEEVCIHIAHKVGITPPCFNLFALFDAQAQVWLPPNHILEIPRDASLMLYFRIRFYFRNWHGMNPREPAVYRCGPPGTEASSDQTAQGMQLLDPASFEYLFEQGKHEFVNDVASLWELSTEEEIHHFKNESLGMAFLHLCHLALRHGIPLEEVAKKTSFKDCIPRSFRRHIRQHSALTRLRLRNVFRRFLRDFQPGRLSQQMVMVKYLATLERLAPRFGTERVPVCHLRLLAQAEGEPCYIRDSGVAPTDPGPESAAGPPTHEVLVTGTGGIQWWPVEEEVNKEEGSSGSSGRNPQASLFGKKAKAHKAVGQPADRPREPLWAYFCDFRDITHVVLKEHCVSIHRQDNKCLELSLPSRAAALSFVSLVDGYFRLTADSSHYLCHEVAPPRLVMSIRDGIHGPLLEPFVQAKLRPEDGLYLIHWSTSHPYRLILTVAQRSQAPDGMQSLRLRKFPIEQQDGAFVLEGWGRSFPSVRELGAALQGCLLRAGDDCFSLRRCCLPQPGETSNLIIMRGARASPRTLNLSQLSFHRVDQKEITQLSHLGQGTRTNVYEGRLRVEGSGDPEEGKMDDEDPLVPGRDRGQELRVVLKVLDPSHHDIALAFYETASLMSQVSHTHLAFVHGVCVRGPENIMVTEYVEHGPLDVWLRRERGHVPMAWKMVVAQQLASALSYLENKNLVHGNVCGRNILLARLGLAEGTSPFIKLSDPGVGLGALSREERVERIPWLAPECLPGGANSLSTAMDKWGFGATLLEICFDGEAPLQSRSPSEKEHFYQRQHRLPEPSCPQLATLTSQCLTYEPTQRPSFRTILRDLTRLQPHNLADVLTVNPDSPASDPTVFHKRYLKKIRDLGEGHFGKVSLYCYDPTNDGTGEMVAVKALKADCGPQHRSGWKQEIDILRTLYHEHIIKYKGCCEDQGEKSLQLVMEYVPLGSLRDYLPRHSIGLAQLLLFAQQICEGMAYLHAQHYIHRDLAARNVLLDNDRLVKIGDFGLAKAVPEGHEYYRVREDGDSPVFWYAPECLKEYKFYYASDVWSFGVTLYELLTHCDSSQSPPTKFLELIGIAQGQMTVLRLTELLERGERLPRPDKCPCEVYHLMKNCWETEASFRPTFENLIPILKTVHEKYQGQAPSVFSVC
How it was run: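 Read-out: phospho-STAT in NK92 lysates, MSD format, anti-STAT4 antibodies. Cells were serum-starved, given compound for 1 hr (10 μM top, four-fold, 10 points) and IL2-stimulated (30 ng/mL, 15 min). Normalized percent activity vs log concentration, 4-parameter logistic fit gave IC50.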

[6] = target: JAK2 kinase activity on STAT5 in TF1 cells (Homo sapiens, UniProt O60674); experiment: pSTAT5 cell assay (MSD; TF1 cells, 30 ng/mL IL-3 stimulation); assay type: cell-based; conditions: 30 ng/mL IL-3, 15 minutes
Sequence of JAK2 kinase activity on STAT5 in TF1 cells (O60674 whole entry): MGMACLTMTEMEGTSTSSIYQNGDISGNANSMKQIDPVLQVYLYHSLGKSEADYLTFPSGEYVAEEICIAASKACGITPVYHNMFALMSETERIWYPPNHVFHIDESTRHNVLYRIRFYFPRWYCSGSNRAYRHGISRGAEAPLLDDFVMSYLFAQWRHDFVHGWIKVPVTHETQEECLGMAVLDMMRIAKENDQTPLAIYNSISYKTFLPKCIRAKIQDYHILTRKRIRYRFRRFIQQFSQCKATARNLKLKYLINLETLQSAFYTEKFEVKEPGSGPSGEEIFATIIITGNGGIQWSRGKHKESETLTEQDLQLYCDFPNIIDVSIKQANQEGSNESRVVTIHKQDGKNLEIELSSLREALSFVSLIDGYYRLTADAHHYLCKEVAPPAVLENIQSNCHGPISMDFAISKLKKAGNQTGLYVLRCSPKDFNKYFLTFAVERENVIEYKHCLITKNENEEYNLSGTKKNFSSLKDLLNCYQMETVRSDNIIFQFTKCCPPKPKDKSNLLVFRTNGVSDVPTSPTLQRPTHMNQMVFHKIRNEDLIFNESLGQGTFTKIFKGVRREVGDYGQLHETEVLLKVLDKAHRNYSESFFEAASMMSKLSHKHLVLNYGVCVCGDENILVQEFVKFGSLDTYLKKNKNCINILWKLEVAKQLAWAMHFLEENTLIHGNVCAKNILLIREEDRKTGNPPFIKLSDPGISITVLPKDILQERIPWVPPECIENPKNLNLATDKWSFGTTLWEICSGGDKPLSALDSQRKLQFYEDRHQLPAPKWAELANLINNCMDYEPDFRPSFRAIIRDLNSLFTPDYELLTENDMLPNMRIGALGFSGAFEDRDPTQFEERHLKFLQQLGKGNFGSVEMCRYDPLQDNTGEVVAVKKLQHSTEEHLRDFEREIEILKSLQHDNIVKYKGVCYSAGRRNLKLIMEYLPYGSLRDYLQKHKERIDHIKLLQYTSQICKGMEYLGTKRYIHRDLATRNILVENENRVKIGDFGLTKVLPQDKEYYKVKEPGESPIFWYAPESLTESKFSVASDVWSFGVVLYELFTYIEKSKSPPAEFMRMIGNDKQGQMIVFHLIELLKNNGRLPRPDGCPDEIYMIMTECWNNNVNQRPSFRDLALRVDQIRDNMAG
How it was run: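 IC50 from a 4-parameter logistic fit of normalized pSTAT5 signal, measured by MSD in lysates of TF1 cells. Cells were serum-starved, exposed to compound for 1 h (top concentration 10 μM, four-fold, 10 points), then given IL-3 at 30 ng/mL for 15 min.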

[7] = target: JAK1 kinase activity on STAT3 in TF1 cells (Homo sapiens, UniProt P23458); experiment: pSTAT3 cell assay (MSD; TF1 cells, 30 ng/mL IL-6 stimulation); assay type: cell-based; conditions: 30 ng/mL IL-6, 15 minutes
Sequence of JAK1 kinase activity on STAT3 in TF1 cells (P23458 whole entry): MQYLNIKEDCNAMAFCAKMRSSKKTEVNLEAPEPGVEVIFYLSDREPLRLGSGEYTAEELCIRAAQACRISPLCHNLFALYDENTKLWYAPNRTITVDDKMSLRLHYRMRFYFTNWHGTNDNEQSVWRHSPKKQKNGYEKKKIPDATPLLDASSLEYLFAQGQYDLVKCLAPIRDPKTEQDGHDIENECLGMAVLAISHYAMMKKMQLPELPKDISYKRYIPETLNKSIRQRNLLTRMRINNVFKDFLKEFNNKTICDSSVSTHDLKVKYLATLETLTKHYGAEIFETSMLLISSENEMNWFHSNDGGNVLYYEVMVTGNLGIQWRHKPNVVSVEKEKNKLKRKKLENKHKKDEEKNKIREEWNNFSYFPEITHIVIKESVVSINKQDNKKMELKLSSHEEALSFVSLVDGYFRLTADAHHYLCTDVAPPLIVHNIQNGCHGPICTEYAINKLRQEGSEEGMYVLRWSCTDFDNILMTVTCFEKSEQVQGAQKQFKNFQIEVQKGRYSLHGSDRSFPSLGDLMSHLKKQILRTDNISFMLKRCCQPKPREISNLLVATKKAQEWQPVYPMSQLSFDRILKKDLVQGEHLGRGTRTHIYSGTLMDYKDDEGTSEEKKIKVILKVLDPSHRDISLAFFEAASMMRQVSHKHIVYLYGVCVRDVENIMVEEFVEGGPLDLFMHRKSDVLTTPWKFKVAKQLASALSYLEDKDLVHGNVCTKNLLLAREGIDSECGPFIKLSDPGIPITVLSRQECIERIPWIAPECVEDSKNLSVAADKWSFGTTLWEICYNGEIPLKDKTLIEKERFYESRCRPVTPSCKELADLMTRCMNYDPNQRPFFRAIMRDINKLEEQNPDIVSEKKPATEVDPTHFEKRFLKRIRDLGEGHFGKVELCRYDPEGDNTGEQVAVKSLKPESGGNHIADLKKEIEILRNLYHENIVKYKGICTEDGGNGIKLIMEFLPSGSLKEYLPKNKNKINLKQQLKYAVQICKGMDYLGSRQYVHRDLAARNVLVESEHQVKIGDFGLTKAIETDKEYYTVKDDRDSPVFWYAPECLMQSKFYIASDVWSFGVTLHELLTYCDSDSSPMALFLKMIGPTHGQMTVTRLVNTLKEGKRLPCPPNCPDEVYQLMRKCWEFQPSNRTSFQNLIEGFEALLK
How it was run: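 IC50 values reflect 4-parameter logistic fits of normalized pSTAT3 signal, measured by MSD in lysed TF1 cells. Cells were serum-starved and treated with compound for 1 h (top concentration 10 μM) before a 15 min IL-6 challenge.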

Compound: Cc1c(-c2cn3nccc3c(N3C[C@@H](C)[C@@](C#N)(C4CC4)C3=O)n2)cnn1C [Example 199, (3R,4S)-3-cyclopropyl-1-(6-(1,5-dimethyl-1H-pyrazol-4-yl)pyrazolo[1,5-a]pyrazin-4-yl)-4-methyl-2-oxopyrrolidine-3-carbonitrile]
IC50 ([1]; JH1 kinase domain, ADP-Glo): 100 to 1000 nM
IC50 ([2]; JH1 kinase domain, ADP-Glo): 100 to 1000 nM
IC50 ([3]; JH1 kinase domain, ADP-Glo): < 100 nM
IC50 ([4]; JH1 kinase domain, ADP-Glo): 5 to 20 nM
IC50 [5]: > 100 nM
IC50 [6]: 5000 to 10000 nM
IC50 [7]: 1000 to 5000 nM

Compound: C[C@@H]1CN(c2ccnn3cc(-c4cnn(-c5ccccn5)c4)cc23)C(=O)[C@]1(C#N)C1CC1 [Example 158, (3R,4S)-3-cyclopropyl-4-methyl-2-oxo-1-(6-(1-(pyridin-2-yl)-1H-pyrazol-4-yl)pyrrolo[1,2-b]pyridazin-4-yl)pyrrolidine-3-carbonitrile]
IC50 ([1]; JH1 kinase domain, ADP-Glo): 100 to 1000 nM
IC50 ([2]; JH1 kinase domain, ADP-Glo): 100 to 1000 nM
IC50 ([3]; JH1 kinase domain, ADP-Glo): 100 to 1000 nM
IC50 ([4]; JH1 kinase domain, ADP-Glo): < 5 nM
IC50 [5]: > 100 nM
IC50 [6]: > 10000 nM
IC50 [7]: 1000 to 5000 nM

Compound: C[C@@H]1CN(c2ccnn3cc(-c4cccnc4)cc23)C(=O)[C@]1(C#N)C1CC1 [Example 60, (3R,4S)-3-cyclopropyl-4-methyl-2-oxo-1-(6-(pyridin-3-yl)pyrrolo[1,2-b]pyridazin-4-yl)pyrrolidine-3-carbonitrile]
IC50 ([1]; JH1 kinase domain, ADP-Glo): 100 to 1000 nM
IC50 ([2]; JH1 kinase domain, ADP-Glo): 100 to 1000 nM
IC50 ([3]; JH1 kinase domain, ADP-Glo): 100 to 1000 nM
IC50 ([4]; JH1 kinase domain, ADP-Glo): 5 to 20 nM
IC50 [5]: > 100 nM
IC50 [6]: > 10000 nM
IC50 [7]: 1000 to 5000 nM

Compound: CC(=O)Nc1cncc(-c2cc3c(N4C[C@@H](C)[C@@](C#N)(C5CC5)C4=O)ccnn3c2)c1 [Example 90, N-(5-(4-((3R,4S)-3-cyano-3-cyclopropyl-4-methyl-2-oxopyrrolidin-1-yl)pyrrolo[1,2-b]pyridazin-6-yl)pyridin-3-yl)acetamide]
IC50 ([1]; JH1 kinase domain, ADP-Glo): 100 to 1000 nM
IC50 ([2]; JH1 kinase domain, ADP-Glo): 100 to 1000 nM
IC50 ([3]; JH1 kinase domain, ADP-Glo): 100 to 1000 nM
IC50 ([4]; JH1 kinase domain, ADP-Glo): 5 to 20 nM
IC50 [5]: > 100 nM
IC50 [6]: > 10000 nM
IC50 [7]: 5000 to 10000 nM

Compound: C[C@@H]1CN(c2nc(-c3cnn(C45CC(C#N)(C4)C5)c3)cn3ncc(F)c23)C(=O)[C@]1(C#N)C1CC1 [Example 297, (3R,4S)-1-(6-(1-(3-cyanobicyclo[1.1.1]pentan-1-yl)-1H-pyrazol-4-yl)-3-fluoropyrazolo[1,5-a]pyrazin-4-yl)-3-cyclopropyl-4-methyl-2-oxopyrrolidine-3-carbonitrile]
IC50 ([1]; JAK2 JH1, ADP-Glo): < 100 nM
IC50 ([2]; JAK3 JH1, ADP-Glo): < 100 nM
IC50 ([3]; JAK1 JH1, ADP-Glo): < 100 nM
IC50 ([4]; TYK2 JH1, ADP-Glo): < 5 nM
IC50 [5]: > 100 nM
IC50 [6]: 1000 to 5000 nM
IC50 [7]: 1000 to 5000 nM

Next, values leading:

IC50 ([1]; JAK2 JH1, ADP-Glo): 100 to 1000 nM
IC50 ([2]; JAK3 JH1, ADP-Glo): < 100 nM
IC50 ([3]; JAK1 JH1, ADP-Glo): < 100 nM
IC50 ([4]; TYK2 JH1, ADP-Glo): < 5 nM
IC50 [5]: > 100 nM
IC50 [6]: 1000 to 5000 nM
IC50 [7]: 1000 to 5000 nM
Compound: C[C@@H]1CN(c2nc(-c3ccc4c(cnn4C)c3)cn3nccc23)C(=O)[C@]1(C#N)C1CC1 [Example 225, (3R,4S)-3-cyclopropyl-4-methyl-1-(6-(1-methyl-1H-indazol-5-yl)pyrazolo[1,5-a]pyrazin-4-yl)-2-oxopyrrolidine-3-carbonitrile trifluoroacetate]

IC50 ([1]; JH1 kinase domain, ADP-Glo): 100 to 1000 nM
IC50 ([2]; JH1 kinase domain, ADP-Glo): 100 to 1000 nM
IC50 ([3]; JH1 kinase domain, ADP-Glo): 100 to 1000 nM
IC50 ([4]; JH1 kinase domain, ADP-Glo): 5 to 20 nM
IC50 [5]: > 100 nM
IC50 [6]: > 10000 nM
IC50 [7]: 5000 to 10000 nM
Compound: C[C@@H]1CN(c2ccnn3cc(-c4ccc(F)nc4)cc23)C(=O)[C@]1(C#N)C1CC1 [Example 81, (3R,4S)-3-cyclopropyl-1-(6-(6-fluoropyridin-3-yl)pyrrolo[1,2-b]pyridazin-4-yl)-4-methyl-2-oxopyrrolidine-3-carbonitrile]

IC50 ([1]; JAK2 JH1, ADP-Glo): < 100 nM
IC50 ([2]; JAK3 JH1, ADP-Glo): < 100 nM
IC50 ([3]; JAK1 JH1, ADP-Glo): < 100 nM
IC50 ([4]; TYK2 JH1, ADP-Glo): < 5 nM
IC50 [5]: 20 to 50 nM
IC50 [6]: 100 to 1000 nM
IC50 [7]: < 100 nM
Compound: C[C@@H]1CN(c2nc(-c3cnn(C(F)F)c3)cc3ncsc23)C(=O)[C@]1(C#N)C1CC1 [Example 353, (3R,4S)-3-cyclopropyl-1-(6-(1-(difluoromethyl)-1H-pyrazol-4-yl)thiazolo[5,4-c]pyridin-4-yl)-4-methyl-2-oxopyrrolidine-3-carbonitrile]
